Test results published in paper PMC13242511, “Disrupting Notch signalling by a small molecule inhibiting dihydroorotate dehydrogenase activity” (Scientific Reports, 2026).

Key:
[1] = tested on: Notch signalling; experiment: DHODH inhibitor and uridine rescue experiment (Notch reporter assay); format: cell-based; settings: 1 and 10 µM, 24 h
Protocol: HEK293T Notch reporter cells (#A1-11) were grown to 80% confluency, detached and mixed with the indicated compounds and doses with or without uridine (Sigma-Aldrich, cat #U3003). 10,000 cells/well were then seeded into 96-well cell culture plates (ThermoFisher, cat #136102) and incubated for 24 h. DMSO treatment with or without uridine served as control for each treatment. Cells were then subjected to Notch reporter assays, and luciferase signals were recorded on a Varioscan Lux microplate reader (ThermoFisher). Reporter signals from each treatment were normalised to the respective DMSO control, as described above and three independent assays were recorded with at least two technical replicates per treatment.

[2] = tested on: NOTCH1; experiment: Cell surface biotinylation experiment; format: cell-based; settings: MDA-MB-231, 2 µM, 24 h; Fig. 8B
Protocol: For labelling of membrane proteins, MDA-MB-231 cells were grown to 80% confluency in 6-well cell culture dishes (ThermoFisher, cat #104675) and treated with 2 µM of the indicated compounds for 24 h. Plates were then put on ice for 10 min to slow down cellular metabolism and halt internalisation of membrane proteins. Next, 0.5 mg/ml Sulfo-NHS-Biotin (ThermoFisher, cat #21217) in PBS was added to every second well for 40 min and non-treated wells served as controls. Excess of biotin was removed by washing the plates with PBS followed by incubation with 100 mM glycin (Sigma-Aldrich, cat #G8898) in PBS on ice. Wells were washed twice with ice-cold PBS and next, 500 µl lysis buffer was added to each well (50 mM Tris–HCl pH 7.4, 150 mM NaCl, 1% Triton X-100, (Sigma-Aldrich, cat #X100), 2 mM EDTA, including protease and phosphatase inhibitors, Thermofisher, cat #78442). […] NOTCH1 TMICD western blot band intensity was quantified using Fiji (ImageJ) after background subtraction. Relative enrichment of NOTCH1 protein present at the cell surface was calculated with IP/Input ratio (IP NOTCH1/Input NOTCH1). Input and corresponding IP fraction of a treatment were separated on the same gel and bands were measured while non-saturated. Two independent biological replicates were assessed.

## COc1cccc(CNc2ccc(N3CCCCC3)cc2)c1OCc1cccs1 [compound C]
[1]; plus 100 µM uridine
  effect on Notch reporter activity after addition of uridine: reversed
[1]; without uridine
  Notch reporter assay activity: reduced the reporter assay activity
[2]
  NOTCH1 surface presentation: not hindered
